Test results taken from US20230142844A1, “USE OF 1,9-DECANEDIOL IN RETARDING UREA HYDROLYSIS” (INSTITUTION OF SOIL SCIENCE, CHINESE ACADEMY OF SCIENCES, priority 2021, published 2023).

Tested on: urea hydrolysis in soil
Test: Soil culture test: effect of inhibitors applied with urea on urea hydrolysis (urea nitrogen and ammonia nitrogen contents in soil)
Details: for contents of ammonia nitrogen in soil (NH4^+-N) / contents of urea nitrogen in soil (Urea-N): flooded paddy soil, 25° C.; for inhibition of urea hydrolysis during the culture period / effect on retarding the hydrolysis efficiency of urea: result in words; for effect on retarding the hydrolysis efficiency of urea: applied with urea to flooded paddy soil
Method: 1.1 experimental soil: the type of experimental soil is paddy soil, and the texture is sandy loam soil. It is collected from 0-20 cm topsoil of experimental field in Yingtan City, Jiangxi Province (28° 15′N, 116° 55′E). It is sieved by 2 millimeters (mm), mixed, and reserved.
1.2 test reagent: 1,9-decanediol is customized in market, and a structural formula thereof is C10H22O2. Nitrification inhibitor is dicyandiamide (DCD, a structural formula thereof is C2H4N4) is purchased from Sigma.
1.3 experimental treatment: experimental setting as follows: urea treatment (U); nitrification inhibitor DCD +urea treatment including: DCD-20 mg/kg soil; 1,9-decanediol+urea treatment in the soil including: 1,9-D-100 mg/kg, 1,9-D-200 mg/kg, 1,9-D-500 mg/kg, and 1,9-D-1000 mg/kg. Each treatment is repeated three times. The amount of nitrogen applied is […] nitrogen per kilogram soil.
After the experimental soil is weighed into 100 milliliters (mL) plastic pipe, distilled water is evenly added, and the soil water content is adjusted to 60% of the maximum field water capacity. Then the plastic pipe is sealed with sealing film and uniform holes are pricked to keep air flowing, and pre-cultured in a 25° C. incubator for three days.
After the pre-culture, according to the different experimental treatments, the corresponding urea and inhibitors (1,9-decanediol and DCD) are weighed to form a mixed solution, the mixed solution is evenly applied to soil, then distilled water is added to maintain a flooded state, and cultured at 25° C. […]. The contents of urea nitrogen and ammonia nitrogen in soil are measured on the 1st, 2nd, 3rd, 5th, and 7th days of culture to evaluate the effects of different inhibitors on nitrogen transformation.

[1] = 1,9-decanediol 100 mg/kg in soil + urea, 1 d of culture
[2] = 1,9-decanediol 100 mg/kg in soil + urea, 2 d of culture
[3] = 1,9-decanediol 100 mg/kg in soil + urea, 3 d of culture
[4] = 1,9-decanediol 100 mg/kg in soil + urea, 5 d of culture
[5] = 1,9-decanediol 100 mg/kg in soil + urea, 7 d of culture
[6] = 1,9-decanediol 200 mg/kg in soil + urea, 1 d of culture
[7] = 1,9-decanediol 200 mg/kg in soil + urea, 2 d of culture
[8] = 1,9-decanediol 200 mg/kg in soil + urea, 5 d of culture
[9] = 1,9-decanediol 200 mg/kg in soil + urea, 7 d of culture
[10] = 1,9-decanediol 500 mg/kg in soil + urea, 1 d of culture
[11] = 1,9-decanediol 500 mg/kg in soil + urea, 2 d of culture
[12] = 1,9-decanediol 500 mg/kg in soil + urea, 3 d of culture
[13] = 1,9-decanediol 500 mg/kg in soil + urea, 5 d of culture
[14] = 1,9-decanediol 500 mg/kg in soil + urea, 7 d of culture
[15] = 1,9-decanediol 1000 mg/kg in soil + urea, 1 d of culture
[16] = 1,9-decanediol 1000 mg/kg in soil + urea, 2 d of culture
[17] = 1,9-decanediol 1000 mg/kg in soil + urea, 3 d of culture
[18] = 1,9-decanediol 1000 mg/kg in soil + urea, 5 d of culture
[19] = 1,9-decanediol 1000 mg/kg in soil + urea, 7 d of culture
[20] = DCD 20 mg/kg soil + urea, 1 d of culture
[21] = DCD 20 mg/kg soil + urea, 2 d of culture
[22] = DCD 20 mg/kg soil + urea, 3 d of culture
[23] = DCD 20 mg/kg soil + urea, 5 d of culture
[24] = DCD 20 mg/kg soil + urea, 7 d of culture

CC(O)CCCCCCCCO (stereo not drawn) [1,9-D, 1,9-decanediol]
contents of ammonia nitrogen in soil (NH4^+-N) [1]: 171.9 ± 8.1a | contents of urea nitrogen in soil (Urea-N) [1]: 10.1 ± 0.7c | contents of ammonia nitrogen in soil (NH4^+-N) [2]: 176.8 ± 1.2c | contents of urea nitrogen in soil (Urea-N) [2]: 3.7 ± 1.2cd | contents of ammonia nitrogen in soil (NH4^+-N) [3]: 197.7 ± 7.3ab | contents of urea nitrogen in soil (Urea-N) [3]: 3.4 ± 0.5 days | contents of ammonia nitrogen in soil (NH4^+-N) [4]: 187 ± 8.5 mg/kg | contents of urea nitrogen in soil (Urea-N) [4]: 3.3 ± 0.2c | contents of ammonia nitrogen in soil (NH4^+-N) [5]: 221.7 ± 2.4ab | contents of urea nitrogen in soil (Urea-N) [5]: 2.9 ± 0.5bc | contents of ammonia nitrogen in soil (NH4^+-N) [6]: 150.8 ± 2.8b | contents of urea nitrogen in soil (Urea-N) [6]: 15.2 ± 0.1c | contents of ammonia nitrogen in soil (NH4^+-N) [7]: 173.7 ± 1.9c | contents of urea nitrogen in soil (Urea-N) [7]: 9.1 ± 0.51b | contents of ammonia nitrogen in soil (NH4^+-N) (1,9-decanediol 200 mg/kg in soil + urea, 3 d of culture): 195 ± 9b | contents of ammonia nitrogen in soil (NH4^+-N) [8]: 213.9 ± 3.3ab | contents of urea nitrogen in soil (Urea-N) [8]: 2.8 ± 0.5c | contents of ammonia nitrogen in soil (NH4^+-N) [9]: 221.4 ± 4.4ab | contents of urea nitrogen in soil (Urea-N) [9]: 4.2 ± 1.4ab | contents of ammonia nitrogen in soil (NH4^+-N) [10]: 51 ± 1.1c | contents of urea nitrogen in soil (Urea-N) [10]: 115.6 ± 13b | contents of ammonia nitrogen in soil (NH4^+-N) [11]: 160 ± 6.2 mg/kg | contents of urea nitrogen in soil (Urea-N) [11]: 11.7 ± 0.4b | contents of ammonia nitrogen in soil (NH4^+-N) [12]: 180.8 ± 6.3c | contents of urea nitrogen in soil (Urea-N) [12]: 10.5 ± 0.7b | contents of ammonia nitrogen in soil (NH4^+-N) [13]: 207.3 ± 2.1b | contents of urea nitrogen in soil (Urea-N) [13]: 6.1 ± 0.6a | contents of ammonia nitrogen in soil (NH4^+-N) [14]: 217.3 ± 3.3b | contents of urea nitrogen in soil (Urea-N) [14]: 3.4 ± 0.7bc | contents of ammonia nitrogen in soil (NH4^+-N) [15]: 46.3 ± 2.1c | contents of urea nitrogen in soil (Urea-N) [15]: 139 ± 7.2a | contents of ammonia nitrogen in soil (NH4^+-N) [16]: 92.9 ± 0.4e | contents of urea nitrogen in soil (Urea-N) [16]: 73.4 ± 3.8a | contents of ammonia nitrogen in soil (NH4^+-N) [17]: 152 ± 1.4 mg/kg | contents of urea nitrogen in soil (Urea-N) [17]: 14.8 ± 1.7a | contents of ammonia nitrogen in soil (NH4^+-N) [18]: 196.7 ± 2c | contents of urea nitrogen in soil (Urea-N) [18]: 5 ± 0.5b | contents of ammonia nitrogen in soil (NH4^+-N) [19]: 203.2 ± 7c | contents of urea nitrogen in soil (Urea-N) [19]: 5.4 ± 0.5a | inhibition of urea hydrolysis during the culture period (addition of 500 mg/kg): can significantly inhibit the urea hydrolysis | inhibition of urea hydrolysis during the culture period (addition of 1000 mg/kg): can significantly inhibit the urea hydrolysis | effect on retarding the hydrolysis efficiency of urea: can retard the hydrolysis efficiency of urea | efficiencies of retarding urea hydrolysis from large to small (ranking of treatments (1,9-D 100-1000 mg/kg, DCD 20 mg/kg soil)): 1, 9-D-1000>1, 9-D-500>1, 9-D-200>1, 9-D-100>DCD

N#CN=C(N)N [DCD, dicyandiamide, reference compound]
contents of ammonia nitrogen in soil (NH4^+-N) [20]: 176.9 ± 5.5a | contents of urea nitrogen in soil (Urea-N) [20]: 4.5 ± 0.4c | contents of ammonia nitrogen in soil (NH4^+-N) [21]: 183.6 ± 4b | contents of urea nitrogen in soil (Urea-N) [21]: 1.6 ± 0.3 days | contents of ammonia nitrogen in soil (NH4^+-N) [22]: 203.1 ± 1.6ab | contents of urea nitrogen in soil (Urea-N) [22]: 1.4 ± 0.2e | contents of ammonia nitrogen in soil (NH4^+-N) [23]: 208.4 ± 1.6b | contents of urea nitrogen in soil (Urea-N) [23]: 1.2 ± 0.1 days | contents of ammonia nitrogen in soil (NH4^+-N) [24]: 217.9 ± 4.3b | contents of urea nitrogen in soil (Urea-N) [24]: 2.9 ± 0.4bc | effect on retarding the hydrolysis efficiency of urea: no effect
